In series [1] the target is T1, human neuronal nAChR α4β2 (Homo sapiens, UniProt P17787+P43681).
T1 construct: expressed in transfected cells; host or cells: human epithelial cell line (named a human embryonic kidney cell line)
Put plainly: α4β2-nAChR functional assay in human epithelial cell line. The format is cell-based. The protocol: To assess the activity of the compound of the invention on the human neuronal nAChR α4β2, a similar functional assay is carried out using a human epithelial cell line stably expressing the human α4β2 subtype (Michelmore et al., Naunyn-Schmiedeberg's Arch.

The next series concerns parkinsonian primates. The series can be described thus: Antidyskinetic effect in parkinsonian primates (MPTP, levodopa-induced dyskinesia). It counts as in vivo, cynomolgus monkeys (Macaca fascicularis). The following applies: with levodopa. The protocol:
Female ovariectomized cynomolgus monkeys (Macaca fascicularis) are used in the assessment. The animals can be rendered parkinsonian by continuous infusion of 1-methyl-4-phenyl-1,2,3,6-tetrahydropyridine (MPTP) until they develop a stable parkinsonian syndrome. After recuperation, animals are treated daily with levodopa until clear and reproducible dyskinesias are developed.
Monkeys are observed through a one-way screen window in their home cage. They are observed and scored repeatedly at baseline and after a standard s.c. dose of levodopa. Locomotor activity is assessed and followed with an electronic monitoring system. Antiparkinsonian responses are evaluated by measuring the locomotor activity and a Parkinson disability scale (see Hadj Tahar A et al, Clin Neuropharmacol 2000; 23:195-202; and Samadi P et al, Neuropharmacology 2003; 45:954-963). Dyskinesias are closely monitored and scored according to a dyskinesia rating scale (also described in Hadj Tahar A et al; and Samadi P et al) every 15 minutes until the end of the effect. The doses of levodopa are chosen to induce motor activation and reproducible dyskinesia but no excessive agitation.
Monkeys are observed for at least two hours following an oral administration of vehicle. On a subsequent day, the dose of levodopa selected is tested once. The animals are observed (with measures of parkinsonian and dyskinetic scores) for the entire duration of the levodopa effect and are also monitored for locomotor activity. This provides vehicle control values as well as levodopa antiparkinsonian and dyskinesia response data for comparison with combinations of a α7-nAChR agonist/positive allosteric modulator and levodopa. The monkeys are then tested with a α7-nAChR agonist/positive allosteric modulator in combination with a fixed dose of levodopa. A suspension for oral administration of the α7-nAChR agonist/positive allosteric modulator is administered before levodopa. After each dose, the animals are observed (with measures of parkinsonian and dyskinetic scores) for the entire duration of effect and monitored for locomotor activity or any change in behavior (e.g. circling, excitement, lethargy and sleepiness).
Using this protocol, compound A-1 at a dose of 20 mg/kg was tested. Results based on five monkeys (levodopa/benserazide doses: 22.5/50 mg; 65/50 mg; 30/50 mg; 35/50 mg; and 25/50 mg) are shown in FIGS. 1-4.

Series [2] can be described thus: Oral bioavailability and brain penetration in mice. The format is in vivo. The following applies: 30 μmol/kg p.o. The protocol:
Compounds were orally (30 μmol/kg) administered. Male mice (30-35g, OF1/ICstrain) were sacrificed at indicated time points after oral administration. Trunk-blood was collected in EDTA-containing tubes and the brain was removed and immediately frozen on dry ice.
To 100 μl plasma 10 μl internal standard (1.0 pmol of a compound with solubility and ionization properties similar to test compounds) was added and extracted three times with 500 μl dichloromethane. The combined extracts were then dried under a stream of nitrogen and re-dissolved in 100 μl acetonitrile/water (70% acetonitrile). Brains were weighed and homogenized in water (1:5 w/v). Two 100 μl aliquots of each homogenate+10 μl of internal standard (same standard as used for the plasma samples) were extracted three times with 500 μl dichloromethane and further processed as the plasma samples. Samples were separated on Beckmann high-performance liquid chromatography equipment system with an autosampler (Gilson 233XL).
The limit of detection (LOD), defined as the lowest concentration of the extracted standard sample with a signal to noise ratio of ˜3.

Structures are written as SMILES.

T1 sequence (P43681 29-627 limits assumed): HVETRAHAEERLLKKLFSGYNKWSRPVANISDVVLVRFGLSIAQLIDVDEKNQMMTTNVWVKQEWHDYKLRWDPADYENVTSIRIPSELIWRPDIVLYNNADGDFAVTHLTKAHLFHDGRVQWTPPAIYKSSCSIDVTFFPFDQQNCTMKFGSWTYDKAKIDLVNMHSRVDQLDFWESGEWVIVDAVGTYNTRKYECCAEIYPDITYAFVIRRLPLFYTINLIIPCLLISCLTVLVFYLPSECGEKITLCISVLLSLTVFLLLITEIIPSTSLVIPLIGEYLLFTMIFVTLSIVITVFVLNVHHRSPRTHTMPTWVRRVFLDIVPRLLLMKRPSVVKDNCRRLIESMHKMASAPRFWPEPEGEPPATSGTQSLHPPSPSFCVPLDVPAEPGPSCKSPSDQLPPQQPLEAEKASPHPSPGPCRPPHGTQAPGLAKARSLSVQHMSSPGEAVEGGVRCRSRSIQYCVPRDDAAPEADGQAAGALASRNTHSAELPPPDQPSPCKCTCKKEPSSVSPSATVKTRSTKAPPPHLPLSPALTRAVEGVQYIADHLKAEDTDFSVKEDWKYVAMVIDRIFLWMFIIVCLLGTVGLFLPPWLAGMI
T1 sequence (P17787 26-502): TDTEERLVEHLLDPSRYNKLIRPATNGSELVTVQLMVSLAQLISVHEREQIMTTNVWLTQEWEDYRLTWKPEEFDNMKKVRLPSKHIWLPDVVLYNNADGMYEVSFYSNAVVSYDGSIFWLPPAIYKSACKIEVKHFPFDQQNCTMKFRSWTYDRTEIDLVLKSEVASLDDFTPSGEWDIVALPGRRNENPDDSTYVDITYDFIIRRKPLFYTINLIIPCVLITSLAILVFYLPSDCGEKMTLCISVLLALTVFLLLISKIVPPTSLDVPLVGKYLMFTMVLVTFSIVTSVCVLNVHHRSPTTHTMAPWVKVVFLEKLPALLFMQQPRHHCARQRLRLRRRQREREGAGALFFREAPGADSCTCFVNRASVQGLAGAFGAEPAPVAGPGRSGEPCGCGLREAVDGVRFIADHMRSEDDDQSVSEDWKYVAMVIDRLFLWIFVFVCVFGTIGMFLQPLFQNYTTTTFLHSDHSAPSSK

Regarding `C[C@H](OC(=O)N[C@@H]1CN2CCC1CC2)c1ccccc1F` [A-1, (S)-(1-aza-bicyclo[2.2.2]oct-3-yl)-carbamic acid (S)-1-(2-fluoro-phenyl)-ethyl ester], in series [1], the EC50 (in general, the midpoint of the concentration-response curve) was above 100 µM. Also, in the series on parkinsonian primates, the “effect on antiparkinsonian activity of levodopa” value is reported as “does not lower the antiparkinsonian activity of levodopa”, the “effect on duration of the antiparkinsonian activity of levodopa” value is “significantly increases the duration of the antiparkinsonian activity seen for levodopa administration”, the “effect on levodopa-induced dyskinesia” value was “significantly reduces levodopa-induced dyskinesia” and the “effect on onset of action of levodopa” value is given as “does not delay the onset of action of levodopa”. Moreover, the “Brain (pmoles/g ± SD)” value in series [2] (4 hour) was 101.6 ± 39.6 pmol/g. The concentration at 0.5 h in series [2] (male, OF1/IC, mouse, plasma, po, 0.5 hour, read-out: Plasma (pmoles/ml ± SD)) was 635 ± 261 pmol/mL. Moreover, the concentration at 1 h in series [2] (male, OF1/IC, mouse, plasma, po, 1 hour, read-out: Plasma (pmoles/ml ± SD)) amounted to 685 ± 340 pmol/mL. In series [2] (male, OF1/IC, mouse, plasma, po, 2 hour, read-out: Plasma (pmoles/ml ± SD)), the concentration at 2 h was found to be 168 ± 91.3 pmol/mL. In addition, in series [2] (male, OF1/IC, mouse, plasma, po, 4 hour, read-out: Plasma (pmoles/ml ± SD)), the concentration at 4 h was found to be 85 ± 54.3 pmol/mL. Also, the concentration at 6 h in series [2] (male, OF1/IC, mouse, plasma, po, 6 hour, read-out: Plasma (pmoles/ml ± SD)) came to 29.5 ± 13.8 pmol/mL. Moreover, the concentration at 24 h in series [2] (male, OF1/IC, mouse, plasma, po, 24 hour, read-out: Plasma (pmoles/ml ± SD)) came out at 3.8 ± 0.6 pmol/mL.

Source of the values: US20140171448A1, “USE OF NICOTINIC ACETYLCHOLINE RECEPTOR ALPHA 7 ACTIVATORS” (NOVARTIS AG, priority 2011, published 2014).
